Assay results reported in patent US5837483A, “Enzymatic method for producing N-formyl-α-L-aspartyl-L-phenylalanine methyl ester” (Holland Sweetener Company V.o.F., priority 1996, dated 1998).
Residues, ends and D or L forms follow the SMILES beside them. *: point of attachment. For = O=C*

Legend:
[1] = Batchwise biphase condensation reaction: F-APM in aqueous and organic phase by HPLC; format: physicochemical; conditions: tributyl phosphoric acid/aqueous enzyme solution pH=6.5, 40° C
Procedure: This example was carried out by batchwise operation in biphase system of aqueous phase and organic phase.
An enzyme aqueous solution of pH=6.5 containing 1.131 g/l of thermoase, 0.1M buffer agent (MES) and 0.01M CaCl2, and substrate tributyl phosphoric acid solution containing 88.15 mM of F-L-Asp and 120.97 mM of L-PM were prepared separately and were maintained at 40° C. Both 5 ml's of two solutions were mixed and the condensation reaction between F-L-Asp and L-PM was started. Concentrations of F-L-Asp, L-PM and F-APM were analyzed by HPLC.

[2] = Partition of F-APM between water-immiscible organic solvent and aqueous phase (distribution ratio, eq. 1); format: physicochemical; conditions: for PF-APM / pKa: 40° C; for pKa: read-out: pKF-APM
Excerpt: The water-immiscible solvents of which distribution ratios (DF-APM) described by following equation (1) are 10^-2 or more at pH=6.0 are suitable for effective the extraction of the F-APM produced to the organic phase: [formula] wherein
PF-APM =(CF-APM)org /(CF-APM)aq (1a);
KF-APM ={(CF-APM.spsb.-)aq ×CH.spsb.+
(CF-APM)org : concentration of F-APM contained in the organic phase after the extraction of F-APM;
(CF-APM)aq : concentration of F-APM remained in the aqueous phase after the extraction of F-APM;
(CF-APM.spsb.-)aq : concentration of F-APM^- remained in the aqueous phase after the extraction of F-APM;
CH.spsb.+ : concentration of H^+ remained in the aqueous phase after the extraction of F-APM.
Above PF-APM and KF-APM were obtained by following partition model of F-APM described by following scheme 1. [drawing 1]
Furthermore, above equation (1) was obtained by relation described by following equation (3). [formula]
(§1) 10 ml of organic solvent saturated by water and 10 ml of aqueous solution saturated by organic solvent were entered into sample tube, and 50 mM of F-L-Asp was dissolved in said organic solvent saturated by water and 50 mM of F-APM was dissolved in said aqueous solution saturated by organic solvent.
As a value showing the ability of organic solvent to extract F-APM from aqueous phase, DF-ApM described by equation (1) were used.
(§2) Measurements of these PF-APM and PF-L-Asp were carried out at 40° C.
(§3) DF-APM values of many kinds of organic solvent are shown in Table 1 wherein methyl isobutyl ketone, n-butylformate and butyl acetate are shown as comparative examples, and DF-L-Asp values of many kinds of organic solvent are shown in Table 2.

[3] = Partition of F-L-Asp between water-immiscible organic solvent and aqueous phase (distribution ratio, eq. 2); format: physicochemical; conditions: for PF-A-Asp / pKa: 40° C
Excerpt: Moreover, organic solvents of which distribution ratios of F-L-Asp (DF-L-Asp) described by following equation (2) are 10^-4 or less at pH=6.0 are suitable for increase of conversion ratios to F-APM because large amount of F-L-Asp can be distributed in aqueous phase: [formula] wherein
PF-L-Asp =(CF-L-Asp)org /(CF-L-Asp)aq(2a);
KF-L-Asp1 ={(Cf-L-Asp.spsb.-)aq ×CH.spsb.+
KF-l=Asp2 ={(CF-L-Asp.spsb.2-)aq ×CH.spsb.+
}/(CF-L-Asp.spsb.-)aq (2c);
(CF-L-Asp)org : concentration of F-L-Asp contained in the organic phase after the extraction of F-APM;
(CF-L-Asp)aq : concentration of F-L-Asp remained in the aqueous phase after the extraction of F-APM;
(CF-L-Asp.spsb.-)aq : concentration of F-L-Asp^- remained in the aqueous phase after the extraction of F-APM;
CH.spsb.+ : concentration of H^+ remained in the aqueous phase after the extraction of F-APM;
(CF-L-Asp.spsb.2-)aq : concentration of F-L-Asp^2- remained in the aqueous phase after the extraction of F-APM.
PF-L-Asp, KF-L-Asp1 and KF-L-Asp2 were obtained by the partition model of F-L-Asp described by following scheme 2: [drawing 2]
Furthermore, above equation (2) was obtained by following equation (4): [formula]
as §1
As a value showing the ability to suppress transfer of F-L-Asp from aqueous phase to organic phase, DF-L-Asp described by equation (2) was used.
as §2, §3

[4] = relative to cane sugar; cited from earlier work
[5] = butylacetate/water (comparative)
[6] = methyl ethyl ketone/water, pH = 5
[7] = methyl ethyl ketone/water, pH = 6
[8] = methyl ethyl ketone/water, pH = 7
[9] = methyl isobutyl ketone/water (comparative)
[10] = n-butylformate/water (comparative)
[11] = tri-butylphosphoric acid, n-amylalcohol, t-amylalcohol, 1-butanol, methyl ethyl ketone and isobutanol, pH=6.0
[12] = tri-butylphosphoric acid/water, pH = 5
[13] = tri-butylphosphoric acid/water, pH = 6
[14] = tri-butylphosphoric acid/water, pH = 7

For `COC(=O)[C@H](Cc1ccccc1)NC(=O)[C@H](CC(=O)O)NC=O` [F-APM, N-formyl-α-L-aspartyl-L-phenylalanine methyl ester] (For-Asp-Phe-OMe), which “transfer of F-APM produced to the organic phase” value [1] is on record?
The value was “all F-APM produced were transferred to the organic phase”.

And the PF-APM ([2]; 1-butanol/water)?
The PF-APM was 7.13.

And the pKa ([2]; 1-butanol/water)?
The pKa was 4.17.

And the DF-APM ([2]; 1-butanol/water, pH = 5)?
The DF-APM was 0.919.

And the DF-APM ([2]; 1-butanol/water, pH = 6)?
The DF-APM was 0.101.

And the DF-APM ([2]; 1-butanol/water, pH = 7)?
The DF-APM was 0.0105.

And the PF-APM [2, 5]?
Its PF-APM is 0.47.

And the pKa [2, 5]?
Its pKa is 4.02.

What about the DF-APM ([2]; butylacetate/water (comparative), pH = 5) of the same molecule?
The DF-APM was 0.045.

What about the DF-APM ([2]; butylacetate/water (comparative), pH = 6) of the same molecule?
The DF-APM was 0.0049.

What about the DF-APM ([2]; butylacetate/water (comparative), pH = 7) of the same molecule?
Its DF-APM is 0.00049.

What about the PF-APM ([2]; methyl ethyl ketone/water) of the same molecule?
Its PF-APM is 2.14.

And the pKa ([2]; methyl ethyl ketone/water)?
The pKa was 4.61.

And the DF-APM [2, 6]?
Its DF-APM is 0.556.

And the DF-APM [2, 7]?
Its DF-APM is 0.087.

What about the DF-APM [2, 8] of the same molecule?
The DF-APM was 0.0087.

What about the PF-APM [2, 9] of the same molecule?
The PF-APM was 0.80.

What about the pKa [2, 9] of the same molecule?
The pKa was 4.01.

What about the DF-APM ([2]; methyl isobutyl ketone/water (comparative), pH = 5) of the same molecule?
Its DF-APM is 0.074.

And the DF-APM ([2]; methyl isobutyl ketone/water (comparative), pH = 6)?
The DF-APM was 0.0080.

What about the DF-APM ([2]; methyl isobutyl ketone/water (comparative), pH = 7) of the same molecule?
The DF-APM was 0.00082.

What about the PF-APM ([2]; n-amylalcohol/water) of the same molecule?
Its PF-APM is 3.70.

What about the pKa ([2]; n-amylalcohol/water) of the same molecule?
The pKa was 4.22.

And the DF-APM ([2]; n-amylalcohol/water, pH = 5)?
The DF-APM was 0.527.

And the DF-APM ([2]; n-amylalcohol/water, pH = 6)?
The DF-APM was 0.0604.

What about the DF-APM ([2]; n-amylalcohol/water, pH = 7) of the same molecule?
Its DF-APM is 0.0061.

What about the PF-APM [2, 10] of the same molecule?
The PF-APM was 0.64.

What about the pKa [2, 10] of the same molecule?
The pKa was 4.17.

And the DF-APM ([2]; n-butylformate/water (comparative), pH = 5)?
The DF-APM was 0.083.

What about the DF-APM ([2]; n-butylformate/water (comparative), pH = 6) of the same molecule?
Its DF-APM is 0.0091.

And the DF-APM ([2]; n-butylformate/water (comparative), pH = 7)?
Its DF-APM is 0.0012.

What about the PF-APM ([2]; t-amylalcohol/water) of the same molecule?
Its PF-APM is 6.89.

What about the pKa ([2]; t-amylalcohol/water) of the same molecule?
Its pKa is 4.21.

And the DF-APM ([2]; t-amylalcohol/water, pH = 5)?
The DF-APM was 0.866.

What about the DF-APM ([2]; t-amylalcohol/water, pH = 6) of the same molecule?
The DF-APM was 0.107.

What about the DF-APM ([2]; t-amylalcohol/water, pH = 7) of the same molecule?
Its DF-APM is 0.0111.

What about the “DF-APM values at pH=6.0” value [2, 11] of the same molecule?
The value was ≥ 1×10^-2.

And the PF-APM ([2]; tri-butylphosphoric acid/water)?
The PF-APM was 13.0.

What about the pKa ([2]; tri-butylphosphoric acid/water) of the same molecule?
Its pKa is 4.01.

And the DF-APM [2, 12]?
The DF-APM was 1.20.

What about the DF-APM [2, 13] of the same molecule?
The DF-APM was 0.13.

And the DF-APM [2, 14]?
Its DF-APM is 0.0133.

For `O=CN[C@@H](CC(=O)O)C(=O)O` [F-L-Asp, N-formyl-L-aspartic acid], which PF-A-Asp ([3]; 1-butanol/water) is on record?
Its PF-A-Asp is 0.424.

And the pKa ([3]; 1-butanol/water, read-out: pKF-L-Asp1)?
The pKa was 2.99.

And the pKa ([3]; 1-butanol/water, read-out: pKF-L-Asp2)?
The pKa was 4.83.

What about the DF-L-Asp ([3]; 1-butanol/water, pH = 5) of the same molecule?
Its DF-L-Asp is 16.6 ×10^-4.

What about the DF-L-Asp ([3]; 1-butanol/water, pH = 6) of the same molecule?
Its DF-L-Asp is 0.262 ×10^-4.

What about the DF-L-Asp ([3]; 1-butanol/water, pH = 7) of the same molecule?
Its DF-L-Asp is 0.00278 ×10^-4.

And the PF-A-Asp ([3]; isobutanol/water)?
Its PF-A-Asp is 0.356.

And the pKa ([3]; isobutanol/water, read-out: pKF-L-Asp1)?
Its pKa is 3.11.

What about the pKa ([3]; isobutanol/water, read-out: pKF-L-Asp2) of the same molecule?
Its pKa is 4.44.

What about the DF-L-Asp ([3]; isobutanol/water, pH = 5) of the same molecule?
The DF-L-Asp was 9.9 ×10^-4.

What about the DF-L-Asp ([3]; isobutanol/water, pH = 6) of the same molecule?
The DF-L-Asp was 0.123 ×10^-4.

And the DF-L-Asp ([3]; isobutanol/water, pH = 7)?
The DF-L-Asp was 0.00125 ×10^-4.

And the PF-A-Asp ([3]; methyl ethyl ketone/water)?
Its PF-A-Asp is 0.296.

What about the pKa ([3]; methyl ethyl ketone/water, read-out: pKF-L-Asp1) of the same molecule?
Its pKa is 3.43.

And the pKa ([3]; methyl ethyl ketone/water, read-out: pKF-L-Asp2)?
The pKa was 4.43.

What about the DF-L-Asp [3, 6] of the same molecule?
Its DF-L-Asp is 16.0 ×10^-4.

What about the DF-L-Asp [3, 7] of the same molecule?
Its DF-L-Asp is 0.201 ×10^-4.

And the DF-L-Asp [3, 8]?
The DF-L-Asp was 0.00206 ×10^-4.

What about the PF-A-Asp ([3]; n-amylalcohol/water) of the same molecule?
Its PF-A-Asp is 0.166.

And the pKa ([3]; n-amylalcohol/water, read-out: pKF-L-Asp1)?
Its pKa is 2.95.

And the pKa ([3]; n-amylalcohol/water, read-out: pKF-L-Asp2)?
The pKa was 4.17.

And the DF-L-Asp ([3]; n-amylalcohol/water, pH = 5)?
The DF-L-Asp was 1.9 ×10^-4.

And the DF-L-Asp ([3]; n-amylalcohol/water, pH = 6)?
The DF-L-Asp was 0.0216 ×10^-4.

And the DF-L-Asp ([3]; n-amylalcohol/water, pH = 7)?
Its DF-L-Asp is 0.00021 ×10^-4.

What about the PF-A-Asp ([3]; t-amylalcohol/water) of the same molecule?
Its PF-A-Asp is 0.498.

And the pKa ([3]; t-amylalcohol/water, read-out: pKF-L-Asp1)?
The pKa was 3.16.

And the pKa ([3]; t-amylalcohol/water, read-out: pKF-L-Asp2)?
The pKa was 4.63.

And the DF-L-Asp ([3]; t-amylalcohol/water, pH = 5)?
Its DF-L-Asp is 21.4 ×10^-4.

What about the DF-L-Asp ([3]; t-amylalcohol/water, pH = 6) of the same molecule?
Its DF-L-Asp is 0.294 ×10^-4.

What about the DF-L-Asp ([3]; t-amylalcohol/water, pH = 7) of the same molecule?
The DF-L-Asp was 0.00305 ×10^-4.

And the pKa ([3]; tri-butyl phosphoric acid/water, read-out: pKF-L-Asp1)?
The pKa was 3.18.

What about the pKa ([3]; tri-butyl phosphoric acid/water, read-out: pKF-L-Asp2) of the same molecule?
The pKa was 4.44.

And the “DF-L-Asp values at pH=6.0” value [3, 11]?
Its value is ≤ 1×10^-4.

What about the PF-A-Asp ([3]; tri-butylphosphoric acid/water) of the same molecule?
Its PF-A-Asp is 0.558.

And the DF-L-Asp [3, 12]?
The DF-L-Asp was 18.2 ×10^-4.

And the DF-L-Asp [3, 13]?
Its DF-L-Asp is 0.226 ×10^-4.

What about the DF-L-Asp [3, 14] of the same molecule?
The DF-L-Asp was 0.00231 ×10^-4.

Which “sweetness of cane sugar” value [4] does the source give for `COC(=O)[C@H](Cc1ccccc1)NC(=O)[C@@H](N)CC(=O)O` [aspartame, α-L-Aspartyl-L-phenylalanine methyl ester] (H-Asp-Phe-OMe) here?
Its value is “about 200 times”.
